Key:
KP1005 (CTX-M-14) = assay: Potentiation of aztreonam, strain KP1005; assay type: cell-based
KP1009 (CTX-M-15) [1] = assay: Potentiation of aztreonam, strain KP1009; assay type: cell-based
ec308 (SHV-5) [2] = assay: Potentiation of aztreonam, strain ec308; assay type: cell-based; settings: minimum BLI concentration inhibiting growth with 4 μg/mL aztreonam
ec302 (TEM-10) [3] = assay: Potentiation of aztreonam, strain ec302; assay type: cell-based
KP1004 (K-2) = assay: Potentiation of aztreonam, strain KP1004; assay type: cell-based; settings: minimum BLI concentration inhibiting growth with 4 μg/mL aztreonam
ECL1002 = assay: Potentiation of aztreonam, strain ECL1002; assay type: cell-based; settings: minimum BLI concentration inhibiting growth with 4 μg/mL aztreonam
EC1010 (CMY-6) [4] = assay: Potentiation of aztreonam, strain EC1010; assay type: cell-based
ec308 (SHV-5) [5] = assay: Potentiation of tigemonam, strain ec308; assay type: cell-based; settings: minimum BLI concentration inhibiting growth with 4 μg/mL tigemonam
ec302 (TEM-10) [6] = assay: Potentiation of tigemonam, strain ec302; assay type: cell-based
EC1010 (CMY-6) [7] = assay type: cell-based
CTX-M-14 = CTX-M-14 (Escherichia coli, UniProt Q9L5C7); assay: Inhibition of nitrocefin cleavage by purified CTX-M-14; assay type: biochemical; settings: nitrocefin reporter substrate, purified enzyme; read-out: Ki (CTX-M-14, NCF)
Method: (§1) Purified enzymes were mixed with various concentrations of inhibitors in reaction buffer and incubated for 10 min at room temperature. Nitrocefin was added and substrate cleavage profiles were recorded at 490 nm every 10 sec for 10 min.

SHV-12 = SHV-12 (Klebsiella pneumoniae, UniProt P0AD64, E235K/G234S/L31Q); assay: Inhibition of nitrocefin cleavage by purified SHV-12; assay type: biochemical; settings: nitrocefin reporter substrate, purified enzyme; read-out: Ki (SHV-12, NCF)
Outline: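 Purified enzyme was preincubated with a range of inhibitor concentrations in reaction buffer for 10 min at room temperature. Nitrocefin was then added and its cleavage followed at 490 nm every 10 sec for 10 min.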

KPC-2 = KPC-2 (Klebsiella pneumoniae, UniProt Q9F663); assay: Inhibition of nitrocefin cleavage by purified KPC-2; assay type: biochemical; settings: nitrocefin reporter substrate, purified enzyme; read-out: Ki (KPC-2, NCF)
Method: as §1

Chymotrypsin = molecular target: T1, Chymotrypsin (Bos taurus, UniProt P00766); assay: Serine protease inhibition: chymotrypsin; assay type: biochemical, mammalian; settings: Table 8A, class symbols; read-out: IC50 Chymotrypsin
T1 construct: purchased Calbiochem 230832
Method: (§2) The effect of selected BLIs on the enzymatic activity of some common mammalian serine proteases was evaluated.
(§3) 50 μl of the diluted enzyme was mixed with 50 μl of inhibitor at various concentrations and 50 μl of corresponding buffer (Table 7). Reaction mixtures were incubated for 10 min at 37° C. Subsequently, 50 μl of corresponding substrate (Table 7) was added and absorbance or fluorescence was monitored for 30 min on SpectraMax M2 plate reader (Molecular Devices). 4-(2-Aminoethyl)benzenesulfonyl fluoride hydrochloride (AEBSF) and leupeptin were used as positive controls. Rates of reaction were calculated and presented relative to “no treatment” control.

Thrombin = molecular target: T2, Thrombin (Homo sapiens, UniProt P00734); assay: Serine protease inhibition: thrombin; assay type: biochemical, mammalian; settings: Table 8A, class symbols; read-out: IC50 Thrombin
T2 construct: Thrombin; MPBio; 19491880; purchased MPBio 19491880
Method: as §2, §3

Chymase = molecular target: T3, Chymase (Homo sapiens, UniProt P23946); assay: Serine protease inhibition: chymase; assay type: biochemical, mammalian; settings: Table 8A, class symbols; read-out: IC50 Chymase
T3 construct: purchased Enzo Lifescience BML-SE281
T3 sequence (P23946 22-247): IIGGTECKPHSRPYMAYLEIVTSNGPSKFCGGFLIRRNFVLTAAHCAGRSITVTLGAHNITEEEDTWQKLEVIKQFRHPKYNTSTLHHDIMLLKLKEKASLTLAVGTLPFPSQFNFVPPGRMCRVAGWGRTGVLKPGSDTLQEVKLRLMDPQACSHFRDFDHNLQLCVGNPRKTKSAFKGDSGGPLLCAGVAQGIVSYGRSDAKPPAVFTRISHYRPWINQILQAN
Method: as §2, §3

Neutrophil elastase = molecular target: T4, Neutrophil elastase (Homo sapiens, UniProt P08246); assay: Serine protease inhibition: neutrophil elastase; assay type: biochemical, mammalian; settings: Table 8B; read-out: IC50 Neutrophil elastase
T4 construct: purchased Calbiochem 324681
T4 sequence (P08246 30-267): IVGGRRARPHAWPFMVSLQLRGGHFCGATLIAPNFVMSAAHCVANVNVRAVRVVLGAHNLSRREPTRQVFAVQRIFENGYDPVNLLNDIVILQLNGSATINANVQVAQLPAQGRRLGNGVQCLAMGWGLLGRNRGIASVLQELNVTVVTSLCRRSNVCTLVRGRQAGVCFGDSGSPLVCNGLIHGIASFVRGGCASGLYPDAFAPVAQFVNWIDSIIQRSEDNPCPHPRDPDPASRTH
Method: as §2, §3

CathepsinA = molecular target: T5, CathepsinA (Homo sapiens, UniProt P10619); assay: Serine protease inhibition: cathepsin A; assay type: biochemical, mammalian; settings: Table 8B; read-out: IC50 CathepsinA
T5 construct: purchased R&D Systems 1049-SE
T5 sequence (P10619 29-480): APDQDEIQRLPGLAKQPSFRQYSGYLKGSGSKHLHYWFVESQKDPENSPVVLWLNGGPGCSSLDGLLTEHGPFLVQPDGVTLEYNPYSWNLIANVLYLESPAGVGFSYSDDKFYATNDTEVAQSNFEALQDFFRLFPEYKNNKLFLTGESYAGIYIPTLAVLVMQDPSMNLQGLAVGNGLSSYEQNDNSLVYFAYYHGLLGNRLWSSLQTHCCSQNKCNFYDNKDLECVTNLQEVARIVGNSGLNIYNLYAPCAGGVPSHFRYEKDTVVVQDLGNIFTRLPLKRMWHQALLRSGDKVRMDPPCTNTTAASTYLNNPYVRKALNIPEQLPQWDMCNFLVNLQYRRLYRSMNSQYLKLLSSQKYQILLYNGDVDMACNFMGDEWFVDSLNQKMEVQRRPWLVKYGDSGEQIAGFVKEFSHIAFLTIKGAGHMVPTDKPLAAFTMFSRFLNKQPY
Method: as §2, §3

CathepsinG = molecular target: T6, CathepsinG (Homo sapiens, UniProt P08311); assay: Serine protease inhibition: cathepsin G; assay type: biochemical, mammalian; settings: Table 8B
T6 construct: purchased EMD Millipore 219373
T6 sequence (P08311 21-244): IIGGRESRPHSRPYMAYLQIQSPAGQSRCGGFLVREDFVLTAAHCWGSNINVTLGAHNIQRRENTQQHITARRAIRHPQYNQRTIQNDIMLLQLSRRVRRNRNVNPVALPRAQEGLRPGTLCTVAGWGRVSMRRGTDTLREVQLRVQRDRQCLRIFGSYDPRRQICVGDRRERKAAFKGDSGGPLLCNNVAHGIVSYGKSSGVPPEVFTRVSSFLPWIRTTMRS
Method: as §2, §3

[8] = molecular target: T7, Dipeptidyl peptidase 8 (DPP8) (Homo sapiens, UniProt Q6V1X1); assay: Serine protease inhibition: DPP8; assay type: biochemical, mammalian; settings: Table 8B; read-out: IC50 DPP8
T7 construct: purchased BPS Bioscience 80080
Method: as §2, §3

[9] = molecular target: T8, Dipeptidyl peptidase 9 (DPP9) (Homo sapiens, UniProt Q86TI2); assay: Serine protease inhibition: DPP9; assay type: biochemical, mammalian; settings: Table 8B; read-out: IC50 DPP9
T8 construct: purchased BPS Bioscience 80090
Method: as §2, §3

KP1009 (CTX-M-15) [10] = assay: Potentiation of tigemonam, strain KP1009; settings: minimum BLI concentration inhibiting growth with 4 μg/mL tigemonam
P99 = P99 (Enterobacter cloacae, UniProt P05364); assay: Inhibition of nitrocefin cleavage by purified P99; assay type: biochemical; settings: nitrocefin reporter substrate, purified enzyme; read-out: Ki (P99, NCF)
Method: as §1

OXA-48 = OXA-48 (Klebsiella pneumoniae, UniProt Q6XEC0); assay: Inhibition of nitrocefin cleavage by purified OXA-48; assay type: biochemical; settings: nitrocefin reporter substrate, purified enzyme; read-out: Ki (OXA-48, NCF)
Method: as §1

PAM1032/KPC-2 = assay: Biapenem potentiation in PAM1032/KPC-2 (MexAB-OprM overexpressed); assay type: cell-based, Pseudomonas aeruginosa; settings: BLI potency to decrease biapenem MIC 64-fold, 32 to 0.5 μg/ml; efflux proficient strain
Method: (§4) Efflux of BLIs from Pseudomonas aeruginosa by the MexAB-OprM efflux pump was also evaluated. […] Due to expression of KPC-2 both strains became resistant to biapenem. […] Potency of BLIs to potentiate biapenem in these strains was determined. […] The ratio of MPC64 values for each BLI in PAM1032/KPC-2 (efflux proficient) and PAM1154/KPC-2 (efflux deficient) was determined to generate the Efflux Index (EI).

PAM1154/KPC-2 = assay: Biapenem potentiation in PAM1154/KPC-2 (MexAB-OprM lacking); assay type: cell-based, Pseudomonas aeruginosa
Method: as §4

Sequence of SHV-12 (P0AD64 22-286 L31Q/G234S/E235K): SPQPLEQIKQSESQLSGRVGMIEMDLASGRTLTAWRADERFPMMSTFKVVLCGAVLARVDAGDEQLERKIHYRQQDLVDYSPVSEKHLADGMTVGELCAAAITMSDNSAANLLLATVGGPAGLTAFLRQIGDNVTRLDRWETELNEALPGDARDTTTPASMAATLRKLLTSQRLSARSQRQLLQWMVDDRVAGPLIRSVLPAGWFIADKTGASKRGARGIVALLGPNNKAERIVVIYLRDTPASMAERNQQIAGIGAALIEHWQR
Sequence of CTX-M-14 (Q9L5C7 entry or part of it): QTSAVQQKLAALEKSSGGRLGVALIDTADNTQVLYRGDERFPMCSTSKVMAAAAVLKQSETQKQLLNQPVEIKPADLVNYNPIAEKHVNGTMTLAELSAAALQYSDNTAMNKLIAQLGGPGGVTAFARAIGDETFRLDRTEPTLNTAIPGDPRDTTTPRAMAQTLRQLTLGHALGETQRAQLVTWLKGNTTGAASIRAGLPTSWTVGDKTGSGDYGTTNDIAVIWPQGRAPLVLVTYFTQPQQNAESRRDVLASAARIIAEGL
T7 sequence (Q6V1X1 whole entry): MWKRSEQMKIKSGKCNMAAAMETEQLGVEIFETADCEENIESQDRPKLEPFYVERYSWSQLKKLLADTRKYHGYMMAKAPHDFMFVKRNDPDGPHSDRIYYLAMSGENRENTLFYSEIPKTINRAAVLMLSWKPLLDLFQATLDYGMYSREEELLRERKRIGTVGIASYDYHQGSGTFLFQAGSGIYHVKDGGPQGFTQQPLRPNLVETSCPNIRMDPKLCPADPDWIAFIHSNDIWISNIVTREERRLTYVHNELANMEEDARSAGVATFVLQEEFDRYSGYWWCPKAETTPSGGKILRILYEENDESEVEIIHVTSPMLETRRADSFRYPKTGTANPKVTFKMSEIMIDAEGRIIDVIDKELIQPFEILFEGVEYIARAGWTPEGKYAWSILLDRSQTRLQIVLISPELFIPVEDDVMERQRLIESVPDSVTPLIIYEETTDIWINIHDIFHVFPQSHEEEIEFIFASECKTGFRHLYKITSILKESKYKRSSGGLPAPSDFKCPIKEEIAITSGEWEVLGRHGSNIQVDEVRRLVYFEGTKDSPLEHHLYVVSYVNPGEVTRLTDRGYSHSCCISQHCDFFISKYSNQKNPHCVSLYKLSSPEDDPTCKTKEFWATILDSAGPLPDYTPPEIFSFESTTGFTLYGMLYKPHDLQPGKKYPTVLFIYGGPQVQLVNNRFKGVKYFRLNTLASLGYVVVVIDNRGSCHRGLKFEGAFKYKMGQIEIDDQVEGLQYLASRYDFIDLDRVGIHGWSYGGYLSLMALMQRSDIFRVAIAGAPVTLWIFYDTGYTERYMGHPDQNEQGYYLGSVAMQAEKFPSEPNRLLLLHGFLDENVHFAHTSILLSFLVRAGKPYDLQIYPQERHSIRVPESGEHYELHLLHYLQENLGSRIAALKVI
Sequence of P99 (P05364 21-381): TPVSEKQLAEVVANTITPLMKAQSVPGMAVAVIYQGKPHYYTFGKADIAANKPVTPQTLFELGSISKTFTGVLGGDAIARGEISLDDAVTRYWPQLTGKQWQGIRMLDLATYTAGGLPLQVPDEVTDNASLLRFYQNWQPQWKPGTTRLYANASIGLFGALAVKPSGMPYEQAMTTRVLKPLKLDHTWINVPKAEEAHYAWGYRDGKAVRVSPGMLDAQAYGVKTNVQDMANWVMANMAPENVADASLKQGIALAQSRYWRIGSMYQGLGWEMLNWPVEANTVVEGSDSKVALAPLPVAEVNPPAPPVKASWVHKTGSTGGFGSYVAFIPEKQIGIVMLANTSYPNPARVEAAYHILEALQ
T8 sequence (Q86TI2 whole entry): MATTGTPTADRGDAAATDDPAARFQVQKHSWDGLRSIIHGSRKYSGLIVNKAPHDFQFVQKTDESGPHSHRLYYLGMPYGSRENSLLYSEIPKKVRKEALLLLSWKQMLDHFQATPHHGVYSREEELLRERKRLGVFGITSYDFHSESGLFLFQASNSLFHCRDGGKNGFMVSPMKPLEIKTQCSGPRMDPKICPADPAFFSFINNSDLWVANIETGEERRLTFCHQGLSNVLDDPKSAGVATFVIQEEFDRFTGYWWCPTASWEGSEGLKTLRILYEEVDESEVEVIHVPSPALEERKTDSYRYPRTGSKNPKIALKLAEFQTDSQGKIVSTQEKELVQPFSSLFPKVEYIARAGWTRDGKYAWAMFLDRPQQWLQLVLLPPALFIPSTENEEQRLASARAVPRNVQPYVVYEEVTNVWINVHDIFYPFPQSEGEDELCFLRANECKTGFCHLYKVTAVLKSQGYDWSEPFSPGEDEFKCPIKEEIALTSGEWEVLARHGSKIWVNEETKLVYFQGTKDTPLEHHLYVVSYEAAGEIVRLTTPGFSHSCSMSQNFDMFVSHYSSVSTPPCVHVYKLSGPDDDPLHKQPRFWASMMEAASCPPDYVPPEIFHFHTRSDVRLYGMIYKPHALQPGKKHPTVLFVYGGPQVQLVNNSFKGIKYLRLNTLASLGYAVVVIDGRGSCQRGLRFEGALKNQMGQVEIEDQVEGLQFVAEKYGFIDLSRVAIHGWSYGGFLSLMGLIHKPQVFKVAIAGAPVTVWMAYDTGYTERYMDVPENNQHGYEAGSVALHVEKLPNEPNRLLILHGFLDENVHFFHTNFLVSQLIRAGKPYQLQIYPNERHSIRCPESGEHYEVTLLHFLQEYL
Sequence of OXA-48 (Q6XEC0 23-265 limits assumed): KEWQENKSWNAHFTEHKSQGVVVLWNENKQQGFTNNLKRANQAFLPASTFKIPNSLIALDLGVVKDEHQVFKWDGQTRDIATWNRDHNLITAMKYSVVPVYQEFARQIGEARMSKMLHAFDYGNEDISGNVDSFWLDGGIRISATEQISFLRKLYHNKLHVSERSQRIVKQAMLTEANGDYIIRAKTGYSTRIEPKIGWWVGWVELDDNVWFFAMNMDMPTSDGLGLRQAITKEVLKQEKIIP
Sequence of KPC-2 (Q9F663 25-293, looked up, species assumed): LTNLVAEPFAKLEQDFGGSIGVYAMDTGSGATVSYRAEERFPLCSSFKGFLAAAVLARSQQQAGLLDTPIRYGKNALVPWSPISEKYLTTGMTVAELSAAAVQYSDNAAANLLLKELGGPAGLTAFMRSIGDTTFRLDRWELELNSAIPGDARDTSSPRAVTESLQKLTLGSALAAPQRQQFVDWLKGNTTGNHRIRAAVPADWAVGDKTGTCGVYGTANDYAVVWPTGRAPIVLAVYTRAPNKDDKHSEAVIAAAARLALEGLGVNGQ

| Compound | AZT MPC4 CTX-M-14 KP1005 (KP1005 (CTX-M-14)) | AZT MPC4 CTX-M-15 KP1009 (KP1009 (CTX-M-15) [1]) | AZT MPC4 SHV-5 ec308 (ec308 (SHV-5) [2]) | AZT MPC4 TEM-10 ec302 (ec302 (TEM-10) [3]) | AZT MPC4 K-2 KP1004 (KP1004 (K-2)) | AZT MPC4 ECL1002 (ECL1002) | AZT MPC4 CMY-6 EC1010 (EC1010 (CMY-6) [4]) | TIG MPC4 SHV-5 ec308 (ec308 (SHV-5) [5]) | TIG MPC4 TEM-10 ec302 (ec302 (TEM-10) [6]) | TIG MPC4 CMY-6 EC1010 (EC1010 (CMY-6) [7]) | Ki (CTX-M-14) | Ki (SHV-12) | IC50 (CathepsinA) | IC50 (CathepsinG) | TIG MPC4 CTX-M-15 KP1009 (KP1009 (CTX-M-15) [10]) | other results |
| --- | --- | --- | --- | --- | --- | --- | --- | --- | --- | --- | --- | --- | --- | --- | --- | --- |
| O=C(COCc1ccccc1)N[C@H]1Cc2cccc(C(=O)O)c2OB1O [CPD B, reference compound] | Z (key: X = MIC of less than 1 μg/mL; Y = MIC of 1 μg/mL to 10 μg/mL; Z = MIC of greater than 10 μg/mL) | Z (key: X = MIC of less than 1 μg/mL; Y = MIC of 1 μg/mL to 10 μg/mL; Z = MIC of greater than 10 μg/mL) | Y (Y = MIC of 1 μg/mL to 10 μg/mL) | Z (key: X = MIC of less than 1 μg/mL; Y = MIC of 1 μg/mL to 10 μg/mL; Z = MIC of greater than 10 μg/mL) | Z (Z = MIC of greater than 10 μg/mL) | Z (Z = MIC of greater than 10 μg/mL) | Z (key: X = MIC of less than 1 μg/mL; Y = MIC of 1 μg/mL to 10 μg/mL; Z = MIC of greater than 10 μg/mL) | Y (Y = MIC of 1 μg/mL to 10 μg/mL) | Z (key: X = MIC of less than 1 μg/mL; Y = MIC of 1 μg/mL to 10 μg/mL; Z = MIC of greater than 10 μg/mL) | Y (key: X = MIC of less than 1 μg/mL; Y = MIC of 1 μg/mL to 10 μg/mL; Z = MIC of greater than 10 μg/mL) | < 0.001 µM | < 0.001 µM | 15 to 500 µM | 15 to 500 µM | Z (Z = MIC of greater than 10 μg/mL) | Ki (KPC-2): > 0.01 µM; IC50 (Chymotrypsin): > 800 µM; IC50 (Thrombin): > 800 µM; IC50 (Chymase): 300 to 800 µM; IC50 (Neutrophil elastase): > 500 µM; IC50 [8]: 15 to 500 µM; IC50 [9]: > 500 µM |
| O=C(N[C@H]1Cc2cccc(C(=O)O)c2OB1O)c1cccnc1 [Compound 12, (R)-2-hydroxy-3-(nicotinamido)-3,4-dihydro-2H-benzo[e][1,2]oxaborinine-8-carboxylic acid] | Y (key: X = MIC of less than 1 μg/mL; Y = MIC of 1 μg/mL to 10 μg/mL; Z = MIC of greater than 10 μg/mL) | Y (key: X = MIC of less than 1 μg/mL; Y = MIC of 1 μg/mL to 10 μg/mL; Z = MIC of greater than 10 μg/mL) | Y (Y = MIC of 1 μg/mL to 10 μg/mL) | X (key: X = MIC of less than 1 μg/mL; Y = MIC of 1 μg/mL to 10 μg/mL; Z = MIC of greater than 10 μg/mL) | Y (Y = MIC of 1 μg/mL to 10 μg/mL) | X (X = MIC of less than 1 μg/mL) | Y (key: X = MIC of less than 1 μg/mL; Y = MIC of 1 μg/mL to 10 μg/mL; Z = MIC of greater than 10 μg/mL) | Y (Y = MIC of 1 μg/mL to 10 μg/mL) | Y (key: X = MIC of less than 1 μg/mL; Y = MIC of 1 μg/mL to 10 μg/mL; Z = MIC of greater than 10 μg/mL) | Y (key: X = MIC of less than 1 μg/mL; Y = MIC of 1 μg/mL to 10 μg/mL; Z = MIC of greater than 10 μg/mL) | < 0.001 µM | < 0.001 µM | 15 to 500 µM | < 15 µM | Y (Y = MIC of 1 μg/mL to 10 μg/mL) | Ki (P99): < 0.001 µM; Ki (OXA-48): < 0.001 µM; PAM1032/KPC-2 Biapenem MPC64 (PAM1032/KPC-2): Z (Z Greater than 40); PAM1154/KPC-2 Biapenem MPC64 (PAM1154/KPC-2): X (key: X = Less than 10; Y = 10 to 40; Z Greater than 40) |
